Experiment [1] has as its system plasma protein extravasation at the blood vessels within the Dura mater after mCPP application. Nature of the experiment: mCPP model in guinea pigs: plasma protein extravasation (EvansBlue). It is filed as in vivo. Conditions: for Plasma protein extravasation as EvansBlue extinction at 600 nm: 2 min before 1 μg/kg mCPP, guinea pig dura mater. As to the method: In accordance to the protocol published by Markowitz et. al; (1987) and Olesen et. al; (2000), guinea pigs were used to determine the amount of plasma protein released at the blood vessels within the Dura mater after mCPP application.
2 minutes later 1 μg/kg body weight mCPP were injected and followed by the i.v. application of EvansBlue as marker for the protein plasma extravasation. 15 minutes later animals were transcranial perfused and decapitated. A defined area of the dura mater was isolated and transferred into an eppendorf tube containing 200 μl formamid. Because EvansBlue binds to plasma protein, the amount of bound marker dye is a measure of extravasation of plasma protein. Formamid dissolves EvansBlue from the protein which can be calorimetric detected and quantified at 600 nm.

In experiment [2] the target is T1, human Histamine H2 receptor (Homo sapiens, UniProt P25021).
T1 construct: expressed in transfected cells
Put plainly: Cloned human H2 receptor binding assay. As to the method: (§1) CHO cells were stably transfected with an expression plasmid pCineohH1, pCineohH2, pCineohH3 and pCineohH4 encoding the human Histamine H1, H2, H3 or H4 receptor, respectively. Recombinant cell lines were harvested after confluent growth, homogenized in ice-cold 50 mM Na2/potassium phosphate buffer (pH 7.4) and used for radioligand binding studies. Cell homogenates (40-50 μg of protein) were incubated for 30 min at 25° C. in 50 mM Na2/potassium phosphate buffer (pH 7.4) in 400 μl with the various concentrations of either [^3H]-mepyramine, [^3H]-thiotidine, [^3H]-R-a-Methylhistamine, and [^3H]-pyramilamine for cells expressing recombinant human H1, H2, H3 and H4 receptors, respectively. The nonspecific binding was defined in the presence of 1 μM mianserin. […] The incubations were stopped by rapid dilution with 3 ml of ice-cold 50 mM Na2/potassium phosphate buffer (pH 7.4). […] Filters were washed twice in 3 ml of buffer and radioactivity retained on the filters was measured by liquid scintillation counting.
(§2) EC80 values were calculated from corresponding dose-response experiment using 5-HT, histamine, epinephrine (alpha 1A adrenergic receptor), dopamine (D2 dopaminergic receptor), and acetylcholine (M1 muscarinic receptor) as agonists.

Experiment [3] has as its target T2, human Histamine H1 receptor (Homo sapiens, UniProt P35367).
T2 construct: expressed in transfected cells
Nature of the experiment: Cloned human H1 receptor binding assay. As to the method:
as §1, §2

The target of experiment [4] is T3, human Histamine H4 receptor (Homo sapiens, UniProt Q9H3N8).
T3 construct: expressed in transfected cells
Nature of the experiment: Cloned human H4 receptor binding assay. As to the method:
as §1, §2

Experiment [5] concerns the target T4, human Histamine H3 receptor (Homo sapiens, UniProt Q9Y5N1).
T4 construct: expressed in transfected cells
Nature of the experiment: Cloned human H3 receptor binding assay. As to the method: as §1, §2

Another experiment concerns the target T5, human 5-HT2B receptor (Homo sapiens, UniProt P41595).
T5 construct: expressed in transfected cells; host or cells: HEK 293 (transient)
Nature of the experiment: Cloned human 5-HT2B receptor binding assay. Conditions: 5-HT2B versus 5HT2C; listed as compound of the preferred embodiments.

The structures appear in SMILES notation. Entries after “also recorded” stand apart in the source; their conditions may differ.

T4 sequence (Q9Y5N1 whole entry): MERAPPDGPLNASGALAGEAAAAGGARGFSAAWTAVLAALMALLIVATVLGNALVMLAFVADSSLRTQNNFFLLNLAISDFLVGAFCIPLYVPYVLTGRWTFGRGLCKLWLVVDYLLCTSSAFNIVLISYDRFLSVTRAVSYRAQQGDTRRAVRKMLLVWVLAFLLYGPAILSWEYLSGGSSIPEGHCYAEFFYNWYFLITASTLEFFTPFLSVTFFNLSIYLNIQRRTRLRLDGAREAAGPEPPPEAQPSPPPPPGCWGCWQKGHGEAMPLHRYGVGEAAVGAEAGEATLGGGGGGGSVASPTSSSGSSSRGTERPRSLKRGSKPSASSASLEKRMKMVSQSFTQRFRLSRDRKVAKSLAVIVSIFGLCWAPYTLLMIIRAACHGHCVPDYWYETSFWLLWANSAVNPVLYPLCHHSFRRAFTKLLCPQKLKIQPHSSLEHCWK
T3 sequence (Q9H3N8 whole entry): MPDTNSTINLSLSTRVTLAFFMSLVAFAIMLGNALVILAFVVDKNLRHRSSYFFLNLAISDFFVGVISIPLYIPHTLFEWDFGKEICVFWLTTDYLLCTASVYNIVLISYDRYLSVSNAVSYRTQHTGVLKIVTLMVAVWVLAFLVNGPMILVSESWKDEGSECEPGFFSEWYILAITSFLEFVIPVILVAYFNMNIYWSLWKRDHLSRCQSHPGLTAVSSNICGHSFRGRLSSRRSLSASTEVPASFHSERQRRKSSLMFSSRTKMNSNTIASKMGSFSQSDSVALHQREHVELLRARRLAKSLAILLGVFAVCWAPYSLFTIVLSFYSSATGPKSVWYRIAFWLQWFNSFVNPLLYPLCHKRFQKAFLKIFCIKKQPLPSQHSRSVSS
T1 sequence (P25021 whole entry): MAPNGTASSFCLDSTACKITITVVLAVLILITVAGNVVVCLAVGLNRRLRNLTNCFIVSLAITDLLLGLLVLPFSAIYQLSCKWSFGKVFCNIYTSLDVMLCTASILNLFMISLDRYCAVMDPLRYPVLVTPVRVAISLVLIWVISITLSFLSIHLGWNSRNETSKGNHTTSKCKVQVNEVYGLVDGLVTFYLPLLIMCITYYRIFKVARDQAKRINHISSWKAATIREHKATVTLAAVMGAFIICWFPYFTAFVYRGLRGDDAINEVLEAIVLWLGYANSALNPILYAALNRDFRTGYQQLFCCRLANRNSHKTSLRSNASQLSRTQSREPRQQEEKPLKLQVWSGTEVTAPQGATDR
T5 sequence (P41595 whole entry): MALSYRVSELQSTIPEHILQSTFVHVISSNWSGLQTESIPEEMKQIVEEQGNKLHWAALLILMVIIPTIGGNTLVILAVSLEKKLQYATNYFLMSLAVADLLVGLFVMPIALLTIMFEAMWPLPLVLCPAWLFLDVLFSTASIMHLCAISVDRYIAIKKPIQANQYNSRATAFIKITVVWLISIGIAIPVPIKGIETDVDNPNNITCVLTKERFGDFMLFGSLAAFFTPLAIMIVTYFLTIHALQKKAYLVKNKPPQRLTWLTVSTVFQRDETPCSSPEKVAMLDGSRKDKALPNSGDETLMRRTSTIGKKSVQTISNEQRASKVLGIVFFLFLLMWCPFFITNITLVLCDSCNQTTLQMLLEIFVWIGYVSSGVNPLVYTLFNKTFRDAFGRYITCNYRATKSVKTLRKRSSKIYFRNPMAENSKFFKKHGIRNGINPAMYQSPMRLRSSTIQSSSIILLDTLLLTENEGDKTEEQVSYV
T2 sequence (P35367 whole entry): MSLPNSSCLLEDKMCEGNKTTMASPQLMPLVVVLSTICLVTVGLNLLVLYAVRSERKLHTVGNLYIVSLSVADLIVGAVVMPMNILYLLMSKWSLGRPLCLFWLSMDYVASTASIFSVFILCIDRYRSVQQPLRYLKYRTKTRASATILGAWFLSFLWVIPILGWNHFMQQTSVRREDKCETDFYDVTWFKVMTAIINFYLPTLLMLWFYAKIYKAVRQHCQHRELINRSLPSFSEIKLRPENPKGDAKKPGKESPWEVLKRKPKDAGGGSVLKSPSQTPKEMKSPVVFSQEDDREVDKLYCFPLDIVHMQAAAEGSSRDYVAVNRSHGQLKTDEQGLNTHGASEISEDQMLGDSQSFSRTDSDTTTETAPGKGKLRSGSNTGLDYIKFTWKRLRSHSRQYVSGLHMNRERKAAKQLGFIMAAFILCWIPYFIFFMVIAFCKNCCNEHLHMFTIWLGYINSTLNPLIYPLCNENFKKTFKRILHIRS

In the case of `CC[C@@H](CO)NC(=O)[C@@H]1C=C2c3cccc4c3c(cn4C)C[C@H]2N(C)C1` [Methysergide], the “Plasma protein extravasation as EvansBlue extinction at 600 nm” value (from here on “Plasma protein extravasation”) came out at 0.265 ± 0.034 in experiment [1] (dose 0.1 μg/kg i.v.), 0.250 ± 0.027 in experiment [1] (dose 1 μg/kg i.v.), 0.228 ± 0.064 in experiment [1] (dose 10 μg/kg i.v.) and 0.189 ± 0.026 in experiment [1] (dose 100 μg/kg i.v.).

For `CN1CCC(=C2c3ccccc3Sc3ccccc32)CC1` [Pimethixene, 9-(N-methyl-piperidyliden-4)-thioxanthene], the “Plasma protein extravasation” value in experiment [1] (dose 0.001 μg/kg i.v.) stood at 0.269 ± 0.022. For the same compound, the “Plasma protein extravasation” value in experiment [1] (dose 0.01 μg/kg i.v.) was found to be 0.157 ± 0.040. Also, the “Plasma protein extravasation” value in experiment [1] (dose 0.1 μg/kg i.v.) amounted to 0.126 ± 0.028. Moreover, in experiment [2], the “Affinity for the human H2 receptor (in words)” value is given as “no affinity” and the “pKi values H2” value was “low activity”. In experiment [3], the “Affinity to the human H1 receptor (in words)” value is on record as “high affinity”. In experiment [4], the “Affinity for the human H4 receptor (in words)” value was “no affinity” and the “pKi values H4” value is “low activity”. In experiment [5], the “Affinity for the human H3 receptor (in words)” value is given as “no affinity” and the “pKi values H3” value was “low activity”. For the same compound, at human 5-HT2B receptor, the “Selectivity of affinity for 5-HT2B receptor versus 5HT2C receptor” value is recorded as “selective affinity; also recorded: much higher affinity”.

In the case of `CN1CCC(=C2c3ccccc3CCc3sccc32)CC1` [Pizotifen], the “Plasma protein extravasation” value in experiment [1] (dose 1 μg/kg i.v.) worked out at 0.404 ± 0.025; in experiment [1] (dose 10 μg/kg i.v.), 0.144 ± 0.035; in experiment [1] (dose 100 μg/kg i.v.), 0.230 ± 0.018.

For the compound `Clc1cccc(N2CCNCC2)c1` [mCPP], in experiment [1] (mCPP 1 μg/kg alone, no test compound, negative control 0,130±0,024), the “EvansBlue extinction, positive control (mCPP agonist)” value is recorded as 0,300±0,038.

Source of the values: patent US20060120972A1, “9-(N-methyl-piperidyliden-4)-thioxanthene for treatment of pulmonary hypertension” (priority 2004, published 2006).
